# Laboratory results as given in ChEMBL document CHEMBL4229487, “Cyclic analogue of S-benzylisothiourea that suppresses kynurenine production without inhibiting indoleamine 2,3-dioxygenase activity” (Bioorg Med Chem Lett, 2018).
# Assays:
# [1] = test system: A-431; test: Inhibition of kynurenine production in IFNgamma-treated human A431 cells at 1 uM after 24 hrs in presence of tryptophan relative to control; type: functional; conditions: A-431, 24 h
# [2] = target: Indoleamine 2,3-dioxygenase 1 (Homo sapiens) (UniProt P14902); test: Inhibition of recombinant human IDO at 10 uM using L-tryptophan as substrate after 60 mins relative to control
# Indoleamine 2,3-dioxygenase 1 (Homo sapiens), sequence (P14902 whole entry, looked up): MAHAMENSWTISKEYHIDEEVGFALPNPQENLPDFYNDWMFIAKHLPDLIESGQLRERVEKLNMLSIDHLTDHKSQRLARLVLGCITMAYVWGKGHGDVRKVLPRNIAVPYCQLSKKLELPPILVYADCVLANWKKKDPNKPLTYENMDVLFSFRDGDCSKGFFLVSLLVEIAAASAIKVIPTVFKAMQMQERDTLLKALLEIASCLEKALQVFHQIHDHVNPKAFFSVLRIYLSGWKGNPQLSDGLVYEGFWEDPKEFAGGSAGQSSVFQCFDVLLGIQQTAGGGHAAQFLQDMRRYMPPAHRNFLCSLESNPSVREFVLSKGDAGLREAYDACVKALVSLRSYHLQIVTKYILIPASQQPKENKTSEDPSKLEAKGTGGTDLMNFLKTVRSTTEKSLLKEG
# [3] = test system: A-431; test: Inhibition of kynurenine production in IFNgamma-treated human A431 cells at 10 uM after 24 hrs in presence of tryptophan relative to control; type: functional; conditions: A-431, 24 h
# [4] = test system: A-431; test: Cytotoxicity against human A431 cells; type: cell-based
# [5] = test system: A-431; test: Inhibition of kynurenine production in IFNgamma-treated human A431 cells after 24 hrs in presence of tryptophan; type: functional, cell-based; conditions: A-431, 24 h
# [6] = test system: A-431; test: Cytotoxicity against human A431 cells at 100 uM; type: cell-based; conditions: a-431, 100 µM
# [7] = test system: A-431; test: Inhibition of IFNgamma-induced STAT1 expression in human A431 cells after 24 hrs by Western blot method; type: functional, cell-based
# [8] = test system: A-431; test: Inhibition of IFNgamma-induced IDO expression in human A431 cells after 24 hrs by Western blot method; type: functional, cell-based
Compound,inhibition at 1 µM [1] [%],inhibition [2] [%],also measured
c1ccc(CCc2ccccc2CSC2=NCCS2)cc1,0,0,–
Clc1ccc2sc(SCc3ccccc3CCc3ccccc3)nc2c1,-8,9,–
Clc1ccc2[nH]c(SCc3ccccc3CCCc3ccccc3)nc2c1,44,19,–
N=C(N)SCc1ccccc1,–,–,inhibition at 10 µM [3]: 44%
Clc1ccc2[nH]c(SCc3ccccc3/C=C/c3ccccc3)nc2c1,15,-6,–
c1ccc(CCc2ccccc2CSc2nccs2)cc1,7,31,–
Clc1ccc2[nH]c(SCc3ccccc3OCc3ccccc3)nc2c1,30,3,–
Clc1ccc2[nH]c(SCc3ccccc3Cc3ccccc3)nc2c1,13,46,–
c1ccc(CCc2ccccc2CSc2ncc[nH]2)cc1,1,19,–
c1ccc(CCc2ccccc2CSc2nc3ccccc3[nH]2)cc1,43,43,Activity [4]: Non-Toxic
Clc1ccc2[nH]c(SCc3ccccc3/C=C\c3ccccc3)nc2c1,–,49,IC50 [5]: 340 nM; Activity [6]: Non-Toxic
Clc1ccc2oc(SCc3ccccc3CCc3ccccc3)nc2c1,-18,21,–
[O-][S+](Cc1ccccc1)c1ccccc1CSc1nc2cc(Cl)ccc2[nH]1 (stereo not drawn),30,11,–
c1ccc(CCc2ccccc2CSC2=NCCN2)cc1,7,17,–
Clc1ccc2[nH]c(SCc3ccccc3Oc3ccccc3)nc2c1,39,30,–
O=S(=O)(Cc1ccccc1)c1ccccc1CSc1nc2cc(Cl)ccc2[nH]1,1,24,–
Clc1ccc2[nH]c(SCc3ccccc3C#Cc3ccccc3)nc2c1,6,52,–
Clc1ccc2[nH]c(SCc3ccccc3CCc3ccccc3)nc2c1,48,47,Activity [4]: Non-Toxic
Clc1ccc2[nH]c(SCc3ccccc3SCc3ccccc3)nc2c1,–,19,inhibition [7]: Dose-dependent effect; IC50 [5]: 450 nM; inhibition [8]: Dose-dependent effect; Activity [6]: Non-Toxic
